Biological target: glucosylceramide synthase (GCS) (Homo sapiens (Human), UniProt Q16739)
Assay: UDP-Glo glucosylceramide synthase biochemical assay
Conditions: endogenous GCS in Golgi preparations isolated from human A375 malignant melanoma skin cells; UDP detection by luminescence
Excerpt: A UDP-Glo™ glucosylceramide synthase biochemical assay was utilized to evaluate the effect of test compounds on the activity of endogenous levels of GCS enzyme contained within Golgi preparations isolated from human A375 malignant melanoma skin cells. The UDP-Glo™ glucosylceramide synthase assay uses UDP-Glucose as a nucleotide-glycosyl donor and ceramide as substrate acceptor molecules. In the reaction, glucosylceramide synthase (GCS) transfers glucose from UDP-Glucose to ceramide. Glucosylceramide and UDP are released as products.
Using Promega's UDP-Glo™ Glycosyltransferase assay kit (Promega Corporation, Madison, WI, USA (Promega)), GCS activity was indirectly measured by detecting the amount of UDP produced. An aliquot of GCS enzyme (1.5 μg crude golgi preparation, total protein) and titrated test compound were aliquoted to each well and incubated for 30 minutes at room temperature. […] An equivalent volume of substrate mixture was then added to each well. Following a 20 h incubation at room temperature to allow for GCS turnover of substrate, an equal volume of UDP detection reagent (Promega) was added to each well and incubated for an additional 75 minutes at room temperature to simultaneously convert the accumulated UDP product into ATP and generate light in a luciferase reaction. The generated light was detected using a luminometer. […] luminescence values (RLUs) were normalized to mean “min” and “max” effects, as determined on each plate. “Min” was defined as the mean of the values of the wells treated with vehicle (DMSO) and which represent 0% inhibition; “max” was defined as the mean of the values of the wells treated with a reference inhibitor and which represent the 100% effect. Values for % Emax and EC50 were determined by best-fitting the normalized data to a curve in Activity Base along a four-parameter logistic nonlinear regression (4PL) model (based on the Levenberg-Marquardt algorithm and defined by the equation below): […]
where: n is 4PMin (bottom of the curve); m is 4PMax (top of the curve); i is IP (inflection point of curve); and p is slope. See Levenberg, K., “A Method for the Solution of Certain Problems in Least Squares”, Quart. Appl. Math. 2, (1944), pp 164-168 and Marquardt, D., “An Algorithm for Least Squares Estimation on Nonlinear Parameters”, SIAM J. Appl. Math 11, (1963) pp 431-441.

glucosylceramide synthase (GCS), sequence (Q16739 whole entry): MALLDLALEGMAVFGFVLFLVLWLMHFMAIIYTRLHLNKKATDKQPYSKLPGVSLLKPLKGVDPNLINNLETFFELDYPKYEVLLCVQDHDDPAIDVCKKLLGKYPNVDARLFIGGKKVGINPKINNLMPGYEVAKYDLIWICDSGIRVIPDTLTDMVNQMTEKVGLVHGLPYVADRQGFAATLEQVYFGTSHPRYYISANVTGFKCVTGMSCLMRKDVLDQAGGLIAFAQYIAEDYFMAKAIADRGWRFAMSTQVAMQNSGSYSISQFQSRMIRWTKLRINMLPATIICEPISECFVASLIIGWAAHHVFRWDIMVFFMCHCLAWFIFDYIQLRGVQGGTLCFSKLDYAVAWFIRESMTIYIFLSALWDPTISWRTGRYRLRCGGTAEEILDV

In the case of `N#Cc1cnc(C2CC2)nc1N1CCC2(CC1)Cc1cc(F)ccc1O2` [Compound 64, 2-cyclopropyl-4-(5-fluoro-3H-spiro[benzofuran-2,4′-piperidin]-1′-yl)pyrimidine-5-carbonitrile], the IC50 is reported as 1350 nM.

With `N#Cc1cnc(C2CC2)nc1N1Cc2cccn3c(C(=O)NCC4CC4)cc(c23)C1` [Compound 65, 2-(5-cyano-2-cyclopropylpyrimidin-4-yl)-N-(cyclopropylmethyl)-2,3-dihydro-1H-pyrrrolo[3,2,1-ij][1,6]naphthyridine-5-carboxamide] the IC50 was 119 nM.

In the case of `N#Cc1cnc(C2CC2)nc1N1CCc2nc[nH]c2C1c1cccc(F)c1` (stereo not shown) [Compound 66, 2-cyclopropyl-4-(4-(3-fluorophenyl)-3,4,6,7-tetrahydro-5H-imidazo[4,5-c]pyridin-5-yl)pyrimidine-5-carbonitrile], the IC50 is reported as 2040 nM.

`CNC(=O)[C@]12CN(c3nc(C4CC4)ncc3C#N)C[C@H]1C(c1ccc(C)cc1)=NO2` [Compound 67, (3aS,6aR)-5-(5-cyano-2-cyclopropylpyrimidin-4-yl)-N-methyl-3-(p-tolyl)-3a,4,5,6-tetrahydro-6aH-pyrrolo[3,4-d]isoxazole-6a-carboxamide] gave an IC50 of 207 nM.

For `N#Cc1cnc(C2CC2)nc1N1CCOCC1c1ccccc1F` (stereo not shown) [Compound 68, 2-cyclopropyl-4-(3-(2-fluorophenyl)morpholino)pyrimidine-5-carbonitrile], the IC50 was 546 nM.

`N#Cc1cnc(C2CC2)nc1N1CCc2c(sn(Cc3ccc(F)cc3)c2=O)C1` [Compound 69, 2-cyclopropyl-4-(2-(4-fluorobenzyl)-3-oxo-3,4,5,7-tetrahydroisothiazolo[5,4-c]pyridin-6(2H)-yl)pyrimidine-5-carbonitrile] was tested, and the IC50 was 2760 nM.

`N#Cc1cnc(C2CC2)nc1N1CCN(Cc2nc(-c3ccc(Cl)cc3)no2)CC1` [Compound 70, 4-(4-((3-(4-chlorophenyl)-1,2,4-oxadiazol-5-yl)methyl)piperazin-1-yl)-2-cyclopropylpyrimidine-5-carbonitrile] was tested, and the IC50 was 877 nM.

With `CC(C)N1C(=O)[C@]2(c3ccsc3)CN(c3nc(C4CC4)ncc3C#N)C[C@@H]2S1(=O)=O` [Compound 71, 2-cyclopropyl-4-((3aS,6aR)-2-isopropyl-1,1-dioxido-3-oxo-3a-(thiophen-3-yl)hexahydro-5H-pyrrolo[3,4-d]isothiazol-5-yl)pyrimidine-5-carbonitrile] the IC50 was 832 nM.

`N#Cc1cnc(C2CC2)nc1N1CC2CCCC1CN(Cc1ccccc1)C2` (stereo not shown) [Compound 72, 4-(3-benzyl-3,9-diazabicyclo[3.3.2]decan-9-yl)-2-cyclopropylpyrimidine-5-carbonitrile] showed an IC50 of 1860 nM.

Work on `N#Cc1cnc(C2CC2)nc1N1CCC(O)(c2cccc(C(F)(F)F)c2)CC1` [Compound 73, 2-cyclopropyl-4-(4-hydroxy-4-(3-(trifluoromethyl)phenyl)piperidin-1-yl)pyrimidine-5-carbonitrile] yielded an IC50 of 1110 nM.

`N#Cc1cnc(C2CC2)nc1N(CC1CCCO1)CC1CC2C=CC1C2` (stereo not shown) [Compound 74, 4-((bicyclo[2.2.1]hept-5-en-2-ylmethyl)((tetrahydrofuran-2-yl)methyl)amino)-2-cyclopropylpyrimidine-5-carbonitrile] was tested, and the IC50 was 278 nM.

`N#Cc1cnc(C2CC2)nc1N1CCC2(CC1)NC(=O)Nc1ccccc12` [Compound 75, 2-cyclopropyl-4-(2′-oxo-2′,3′-dihydro-1′H-spiro[piperidine-4,4′-quinazolin]-1-yl)pyrimidine-5-carbonitrile] gave an IC50 of 1090 nM.

Compound `N#Cc1cnc(C2CC2)nc1N1CCCC(c2cc3cccnc3[nH]2)C1` (stereo not shown) [Compound 76, 4-(3-(1H-pyrrolo[2,3-b]pyridin-2-yl)piperidin-1-yl)-2-cyclopropylpyrimidine-5-carbonitrile] has an IC50 of 1480 nM.

`CCNC(=O)[C@]12CN(c3nc(C4CC4)ncc3C#N)C[C@H]1C(Oc1ccccc1)=NO2` [Compound 77, (3aR)-5-(5-cyano-2-cyclopropylpyrimidin-4-yl)-N-ethyl-3-phenoxy-3a,4,5,6-tetrahydro-6aH-pyrrolo[3,4-b]isoxazole-6a-carboxamide] showed an IC50 of 655 nM.

`N#Cc1cnc(C2CC2)nc1N1CCC(N2CCN(Cc3ccc(F)cc3)S2(=O)=O)CC1` [Compound 78, 2-cyclopropyl-4-(4-(5-(4-fluorobenzyl)-1,1-dioxido-1,2,5-thiadiazolidin-2-yl)piperidin-1-yl)pyrimidine-5-carbonitrile] gave an IC50 of 1800 nM.

With `N#Cc1cnc(C2CC2)nc1N1CCN(Cc2ccccc2)C[C@@H]1COCc1ccccc1` [Compound 79, (R)-4-(4-bnezyl-2-((benzyloxy)methyl)piperazin-1-yl)-2-cyclopropylpyrimidine-5-carbonitrile] the IC50 was 3260 nM.

`COC(=O)C[C@@H]1COc2cc(OC3CN(c4nc(C5CC5)ncc4C#N)C3)ccc21` [Compound 80, methyl (S)-2-(6-((1-(5-cyano-2-cyclopropylpyrimidin-4-yl)azetidin-3-yl)oxy)-2,3-dihydrobenzofuran-3-yl)acetate] showed an IC50 of 303 nM.

For `COC[C@@H](c1ccc(C(F)(F)F)cc1)N1CCN(c2nc(C3CC3)ncc2C#N)C[C@@H]1C` [Compound 81, 2-cyclopropyl-4-((S)-4-((R)-2-methoxy-1-(4-(trifluoromethyl)phenyl)ethyl)-3-methylpiperazin-1-yl)pyrimidine-5-carbonitrile], the IC50 was 584 nM.

`N#Cc1cnc(C2CC2)nc1NC1CCN(Cc2ccccc2)C1c1ccccc1` (stereo not shown) [Compound 82, 4-((1-benzyl-2-phenylpyrrolidin-3-yl)amino)-2-cyclopropylpyrimidine-5-carbonitrile] gave an IC50 of 770 nM.

Compound `N#Cc1cnc(C2CC2)nc1N1CCC(N(C2CC2)S(=O)(=O)c2ccccc2)CC1` [Compound 83, N-(1-(5-cyano-2-cyclopropylpyrimidin-4-yl)piperidin-4-yl)-N-cyclopropylbenzenesulfonamide] has an IC50 of 1590 nM.

Work on `N#Cc1cnc(C2CC2)nc1NC(c1ccccc1)C1(N2CCCCC2)CCC1` (stereo not shown) [Compound 84, 2-cyclopropyl-4-((phenyl(1-(piperidin-1-yl)cyclobutyl)methyl)amino)pyrimidine-5-carbonitrile] yielded an IC50 of 1240 nM.

In the case of `CNC(=O)C12CN(c3nc(C4CC4)ncc3C#N)CC1C(c1ccc(C)cc1)=NO2` (stereo not shown) [Compound 85, 5-(5-cyano-2-cyclopropylpyrimidin-4-yl)-N-methyl-3-(p-tolyl)-3a,4,5,6-tetrahydro-6aH-pyrrolo[3,4-d]isoxazole-6a-carboxamide], the IC50 is reported as 168 nM.

In the case of `N#Cc1cnc(C2CC2)nc1N1CC2OCCN(Cc3ccccc3)C2C1` (stereo not shown) [Compound 86, 4-(4-benzylhexahydropyrrolo[3,4-b][1,4]oxazin-6(2H)-yl)-2-cyclopropylpyrimidine-5-carbonitrile], the IC50 is reported as 937 nM.

With `N#Cc1ccccc1C1CCN(c2nc(C3CC3)ncc2C#N)C1` (stereo not shown) [Compound 87, 4-(3-(2-cyanophenyl)pyrrolidin-1-yl)-2-cyclopropylpyrimidine-5-carbonitrile] the IC50 was 218 nM.

`Cc1ccc(-c2noc(CN3CCN(c4nc(C5CC5)ncc4C#N)CC3)n2)cc1` [Compound 88, 2-cyclopropyl-4-(4-((3-(p-tolyl)-1,2,4-oxadiazol-5-yl)methyl)piperazin-1-yl)pyrimidine-5-carbonitrile] gave an IC50 of 446 nM.

With `N#Cc1cnc(C2CC2)nc1N1C[C@@H]2C[C@H]1CN2Cc1ccc(Cl)cc1` [Compound 89, 4-((1S,4S)-5-(4-chlorobenzyl)-2,5-diazabicyclo[2.2.1]heptan-2-yl)-2-cyclopropylpyrimidine-5-carbonitrile] the IC50 was 352 nM.

`N#Cc1cnc(C2CC2)nc1N(CC1CCC1)CC1CCCO1` (stereo not shown) [Compound 90, 4-((cyclobutylmethyl)((tetrahydrofuran-2-yl)methyl)amino)-2-cyclopropylpyrimidine-5-carbonitrile] gave an IC50 of 1620 nM.

With `N#Cc1cnc(C2CC2)nc1NC1CCc2ccc(O)cc21` (stereo not shown) [Compound 91, 2-cyclopropyl-4-((6-hydroxy-2,3-dihydro-1H-inden-1-yl)amino)pyrimidine-5-carbonitrile] the IC50 was 379 nM.

Compound `N#Cc1cnc(C2CC2)nc1NC1CN(C(c2ccccc2)c2ccccc2)C1` [Compound 92, 4-((1-benzhydrylazetidin-3-yl)amino)-2-cyclopropylpyrimidine-5-carbonitrile] has an IC50 of 2900 nM.

Work on `CC(C)c1nc(-c2cccnc2N2CCN(c3nc(C4CC4)ncc3C#N)CC2)no1` [Compound 93, 2-cyclopropyl-4-(4-(3-(5-isopropyl-1,2,4-oxadiazol-3-yl)pyridin-2-yl)piperazin-1-yl)pyrimidine-5-carbonitrile] yielded an IC50 of 48 nM.

`N#Cc1cnc(C2CC2)nc1NC1CCCc2sc(C3CCCCC3)nc21` (stereo not shown) [Compound 94, 4-((2-cyclohexyl-4,5,6,7-tetrahydrobenzo[d]thiazol-4-yl)amino)-2-cyclopropylpyrimidine-5-carbonitrile] gave an IC50 of 14 nM.
